Results from patent publication US11136301B2, “Broad spectrum antiviral compounds and uses thereof” (The Regents Of The University Of California, priority 2015, dated 2021).
“Also recorded” adds a separate entry of the source. Read-outs that look alike come from different tables or passages of the source.

Legend:
[1] = tested on: wild-type HIV-1 (HIV-1LAI) in H9 cells (non-permissive); experiment: microbe, parasite or virus in culture; assay type: cell-based; conditions: for antiviral activity against HIV-1 (in words): HIV-1 replication
[2] = tested on: HA-tagged A3G and GFP-tagged Vif or ΔVif in 293FT cells; experiment: Immunoblot of A3G and Vif levels in transfected 293FT cells; conditions: 293FT cells, 50 μM, 16 h
[3] = Water solubility of choline salts; assay type: physicochemical
Ebola virus = assay type: cell-based; conditions: FIG. 19
Zika virus = experiment: Zika viral replication inhibition; assay type: cell-based; conditions: FIG. 20
[4] = tested on: wild-type HIV-1 (HIV-1LAI) in MT-4 cells (permissive); experiment: Antiviral activity assay: wild-type HIV-1 in permissive MT4 cells, reverse transcriptase activity in culture supernatants; assay type: cell-based
[5] = Human immunodeficiency virus 1, H9, read-out: IC50, anti-HIV-1 activity, non-permissive H9 cells
[6] = Human immunodeficiency virus 1, H9, read-out: Antiviral activity (IC50 μM) H9 cells, Table 5, wild-type HIV-1, non-permissive H9 cells
[7] = Human immunodeficiency virus 1, H9, read-out: Antiviral activity (IC50 μM) H9 cells, Table 8, wild-type HIV-1, non-permissive H9 cells
[8] = Human immunodeficiency virus 1, H9, read-out: Antiviral activity (IC50 μM) H9 cells, wild-type HIV-1 (HIV-1LAI), H9 cells (non-permissive), RT activity in culture supernatants, compounds 1 to 50 μM
[9] = Human immunodeficiency virus 1, H9, read-out: Antiviral activity (IC50 μM) H9, Table 2, wild-type HIV-1, non-permissive H9 cells
[10] = Human immunodeficiency virus 1, H9, read-out: Antiviral activity (IC50 μM) H9 Cells, Table 4, wild-type HIV-1, non-permissive H9 cells
[11] = Human immunodeficiency virus 1, H9, read-out: Antiviral activity (IC50 μM) H9 Cells, Table 7, wild-type HIV-1, non-permissive H9 cells
[12] = Human immunodeficiency virus 1, MT4, Table 2, wild-type HIV-1, permissive MT4 cells, read-out: Antiviral activity (IC50 μM) MT4
[13] = Human immunodeficiency virus 1, MT4, wild-type HIV-1 (HIV-1LAI), MT4 cells (permissive), RT activity in culture supernatants, compounds 1 to 50 μM, read-out: Antiviral activity (IC50 μM) MT4 cells

Compound	antiviral activity against HIV-1 (in words) [1]	IC50 [1, 5]	upregulation of A3G and downregulation of Vif (immunoblots, FIG. 16) [2]	water solubility [3]	Ebola viral replication (Ebola virus)	IC50 [1, 6]	IC50 [1, 7]	IC50 [1, 8]	Zika viral replication (Zika virus)	IC50 [1, 9]	IC50 [1, 10]	IC50 [1, 11]	IC50 [4, 12]	IC50 [4, 13]
COc1ccccc1-n1cc(-c2ccccc2S(=O)(=O)c2ccc(C(=O)O)cc2)nn1 [Compound 2gy, 2-Hydroxy-N,N,N-trimethylethanaminium 4-((2-(1-(2-methoxyphenyl)-1H-1,2,3-triazol-4-yl)phenyl)sulfonyl)benzoate]	potent activities	0.2 µM	same mechanism as of RN-18; also recorded: same mechanism as observed for RN-18 and 1d	water-soluble										
COC(=O)c1ccc(Sc2ccccc2-c2cn(-c3ccc(OC)cc3OC)nn2)cc1 [Compound 4bx, Methyl 4-((2-(1-(2,4-dimethoxyphenyl)-1H-1,2,3-triazol-4-yl)phenyl)thio)benzoate]					Ebola viral replication inhibition	2 µM	2 µM	2 µM	Zika viral replication inhibition					
COc1ccc(-n2cc(-c3ccccc3S(=O)(=O)c3ccc(C(=O)O)cc3)nn2)c(OC)c1 [Compound 4gy, 2-Hydroxy-N,N,N-trimethylethanaminium 4-((2-(1-(2,4-dimethoxyphenyl)-1H-1,2,3-triazol-4-yl)phenyl)sulfonyl)benzoate]	potent activities	0.7 µM		water-soluble						0.7 µM	0.7 µM	0.7 µM	> 50 µM	> 50 µM
COc1ccc(OC)c(-n2cc(-c3ccccc3S(=O)(=O)c3ccc([N+](=O)[O-])cc3)nn2)c1 [Compound 5ay, 1-(2,5-Dimethoxyphenyl)-4-(2-((4-nitrophenyl)sulfonyl)phenyl)-1H-1,2,3-triazole]		1 to 3 µM			Ebola viral replication inhibition	1 µM	1 µM	1 µM		1 µM	1 µM	1 µM	> 50 µM	> 50 µM
COC(=O)c1ccc(Sc2ccccc2-c2cn(-c3cc(OC)ccc3OC)nn2)cc1 [Compound 5bx, Methyl 4-((2-(1-(2,5-dimethoxyphenyl)-1H-1,2,3-triazol-4-yl)phenyl)thio)benzoate]		0.2 µM	same mechanism as of RN-18; also recorded: same mechanism as observed for RN-18 and 1d			0.2 µM	0.2 µM	0.2 µM	Zika viral replication inhibition	0.2 µM	0.2 µM	0.2 µM	> 50 µM	> 50 µM
COc1ccc(OC)c(-n2cc(-c3ccccc3S(=O)(=O)c3ccc(C(=O)O)cc3)nn2)c1 [Compound 5gy, 2-Hydroxy-N,N,N-trimethylethanaminium 4-((2-(1-(2,5-dimethoxyphenyl)-1H-1,2,3-triazol-4-yl)phenyl)sulfonyl)benzoate]	potent activities	0.5 µM	same mechanism as of RN-18; also recorded: same mechanism as observed for RN-18 and 1d	water-soluble							0.5 µM	0.5 µM		
